Patent US20190209650A1, “METHOD TO IMPROVE THE EFFECTIVENESS OF ANTI-CANCER THERAPIES BY EXPOSING CANCER CELLS TO AN INFLAMMATORY STIMULUS PRIOR TO TREATMENT” (priority 2016, published 2019)

What was measured:
[1] = system: SW620 colorectal cancer cell line; experiment: Flow cytometry of EpCAM positive cells and cancer stem cell (CD44+CD133-) subpopulation after incubation with cytokines; type: cell-based, human; conditions: for % Gated, R4 (CD44FITC, CD133 PE) / % Total, R4 (CD44FITC, CD133 PE): population R4 & R14 & R2 & R1; for % Gated, R5 (CD44FITC, CD133 PE) / % Total, R5 (CD44FITC, CD133 PE): population R5 & R14 & R2 & R1; for % Gated, R6 (CD44FITC, CD133 PE) / % Total, R6 (CD44FITC, CD133 PE): population R6 & R14 & R2 & R1; for % Gated, R7 Cancer Stem Cell (CSC) (CD44+CD133-) / % Total, R7 Cancer Stem Cell (CSC) (CD44+CD133-): population R7 & R14 & R2 & R1; for % Gated, R8 (CD44FITC, EpCAMefluor710) / % Total, R8 (CD44FITC, EpCAMefluor710): population R8 & R14 & R2 & R1; for % Gated, R9 EpCAM positive Cells (CD44FITC, EpCAMefluor710) / % Total, R9 EpCAM positive Cells (CD44FITC, EpCAMefluor710): population R9 & R14 & R2 & R1; for % Gated, R10 EpCAM positive Cells (CD44FITC, EpCAMefluor710) / % Total, R10 EpCAM positive Cells (CD44FITC, EpCAMefluor710): population R10 & R14 & R2 & R1; for % Gated, R11 (CD44FITC, EpCAMefluor710) / % Total, R11 (CD44FITC, EpCAMefluor710): population R11 & R14 & R2 & R1; for putative stem cell population (CD44+/CD133-): SW620; for percentage of cancer stem cells: human cancer cell line, single agent at 1000 pg/ml
Method: This number returned to near baseline 21% at 48 hours. […] This change was transient, occurring within 24 hours and rapidly returning to baseline.
The data from the scatter plots of FIGS. 1A-1H, 2A-2H, and 3A-3H are reproduced below in Tables 1-3.
Based on the above data of potentiating the effectiveness of chemotherapy by exposing cancer cells to specific cytokines such as HGF and or Il-6 within a time limited fashion, the mechanism behind this ability to sensitize cancer cells may not simply be triggering cellular proliferation. Specific cytokine exposures can transiently cause a cancer cell population to differentiate away from a more stem cell enriched, mesenchymal phenotype towards a more differentiated, epithelial cell population more sensitive to the effects of anti-cancer therapies (see Tables 1-3).
In particular, exposure to a control population of SW620 colorectal cancer cell line to HGF at a concentration of 10 ng per ml for 24 hours caused the control putative stem cell population (CD44+/CD133−) to drop from 33% at baseline (see Table 1, R7 region, CD 44 positive/CD133 negative) to 1% (see Table 2, R7, region CD 44 positive/CD133 negative). This drop was transient, as exposure to the same cell line for 48 hours of HGF at 10 ng per ml transitioned the phenotypic distribution back towards a stem cell enriched phenotype with 23% putative stem cells (see Table 3, R7 region, CD 44 positive/CD133 negative).

SW 620 cell lines = experiment: Cancer stem cells remaining after cytokine exposure and 24 hours exposure to CPT-11 (Irinotecan); type: cell-based, human; conditions: FIG. 4
Method: FIG. 4 depicts a table showing percentage of Cancer Stem Cells remaining after exposure to various cytokines and 24 hours exposure to CPT-11 (Irinotecan). The present inventor then performed experiments to determine if exposure to HGF would improve the effectiveness of chemotherapy treatment, based on a prediction that this stimulus, by fostering differentiation of the stem cell subpopulation, would render these cells more susceptible to chemotherapy. […] Furthermore, exposure to HGF alone for 24 hours at a concentration of 10 ng per ml followed by treatment with CPT-11 in SW 620 cell lines was able to kill cancer stem cells effectively as well, given that there were no remaining cancer stem cells after this sensitization (FIG. 4 0% CD44+/CD133−).

PANC1 = experiment: Cancer cell viability after 48 hours HGF only pretreatment followed by 72 hour combination treatment; type: cell-based, human; conditions: 48 hours HGF exposure followed by 72 hour combination treatment; FIG. 7
Method: FIG. 7 depicts tables showing cancer cell viability after 48 hours of HGF only pretreatment, followed by 72 hour combination treatment. HI1=HGF 0.5 ng/ml; H12=HGF 1 ng/ml; HI3=HGF 5 ng/ml. A) PANC1 48 hour HGF exposure followed by 72 hour combination treatment (COMBO=30 paclitaxel, 250 μg/mL oseltamivir phosphate, and 2.5 mM aspirin). B) PANC1 48 hour HGF exposure followed by 72 hour combination treatment (COMBO=50 μM paclitaxel, 250 μg/mL oseltamivir phosphate, and 2.5 mM aspirin).
(§1) In the following experiments various concentrations of hepatocyte growth factor (HGF) and Interleukin 6 (IL-6), used singly and together, were used to sensitize cancer cell lines to cytotoxic chemotherapy. In these experiments a combination anti-cancer treatment of paclitaxel with aspirin and oseltamivir phosphate (OP) were used. Cell lines treated with the combination treatment (COMBO) alone were compared with those treated with the combination treatment after exposure to cytokines.
In FIG. 7, exposing human pancreatic cancer cell lines (PANC-1) cells to HGF for 48 hours at various concentrations sensitized cancer cells to subsequent combination treatment. […] P-value in FIG. 7 was calculated based on comparison between Combination Treatment vs. Pretreatment Followed by Combination Treatment.

cancer cells = experiment: Cancer cell viability after 72 hours HGF only pretreatment followed by 72 hour combination treatment; type: cell-based; conditions: 72 hours HGF exposure followed by 72 hour combination treatment; FIG. 8
Method: FIG. 8 depicts a table showing cancer cell viability after 72 hours of HGF only pretreatment, followed by 72 hour combination treatment (COMBO=30 μM paclitaxel, 250 μs/mL oseltamivir phosphate, and 2.5 mM aspirin). HI1=HGF 0.5 ng/ml; HI2=HGF 1 ng/ml; HI3=HGF 5 ng/ml.
as §1
Thus, exposure to this particular cytokine, for longer than 48 hours can increase the likelihood that the cancer cell population is transitioning over to a more stem cell enriched phenotype, rendering the cells less sensitive to the effects of cytotoxic therapies. Other cytokines such as HGF, IL-6, PGE-2, MCP-1, MMP-9, TGF-beta, PDGF-BB, and PGF, the up-regulation of which is associated with stem cell enrichment should also be administered in this time limited manner to avoid a stem cell enriched phenotype that is more resistant to the chemotherapy treatment. […]

[2] = after exposure to HGF, then chemotherapy (CPT-11)

## HGF: Hepatocyte Growth Factor, cytokine
[1]; 0 hour incubation
  % Gated, R4 (CD44FITC, CD133 PE): 48.6%
  % Total, R4 (CD44FITC, CD133 PE): 46.6%
  % Gated, R5 (CD44FITC, CD133 PE): 3.61%
  % Total, R5 (CD44FITC, CD133 PE): 3.45%
  % Gated, R6 (CD44FITC, CD133 PE): 14.2%
  % Total, R6 (CD44FITC, CD133 PE): 13.6%
  % Gated, R7 Cancer Stem Cell (CSC) (CD44+CD133-): 33.8%
  % Total, R7 Cancer Stem Cell (CSC) (CD44+CD133-): 32.3%
  % Gated, R8 (CD44FITC, EpCAMefluor710): 5.28%
  % Total, R8 (CD44FITC, EpCAMefluor710): 5.06%
  % Gated, R9 EpCAM positive Cells (CD44FITC, EpCAMefluor710): 53.1%
  % Total, R9 EpCAM positive Cells (CD44FITC, EpCAMefluor710): 50.9%
  % Gated, R10 EpCAM positive Cells (CD44FITC, EpCAMefluor710): 39%
  % Total, R10 EpCAM positive Cells (CD44FITC, EpCAMefluor710): 37.4%
  % Gated, R11 (CD44FITC, EpCAMefluor710): 2.16%
  % Total, R11 (CD44FITC, EpCAMefluor710): 2.07%
[1]; 24 h incubation
  % Gated, R4 (CD44FITC, CD133 PE): 98.6%
  % Total, R4 (CD44FITC, CD133 PE): 84.7%
  % Gated, R5 (CD44FITC, CD133 PE): 0%
  % Total, R5 (CD44FITC, CD133 PE): 0%
  % Gated, R6 (CD44FITC, CD133 PE): 0.07%
  % Total, R6 (CD44FITC, CD133 PE): 0.06%
  % Gated, R7 Cancer Stem Cell (CSC) (CD44+CD133-): 1.01%
  % Total, R7 Cancer Stem Cell (CSC) (CD44+CD133-): 0.87%
  % Gated, R8 (CD44FITC, EpCAMefluor710): 99.8%
  % Total, R8 (CD44FITC, EpCAMefluor710): 85.7%
  % Gated, R9 EpCAM positive Cells (CD44FITC, EpCAMefluor710): 0.02%
  % Total, R9 EpCAM positive Cells (CD44FITC, EpCAMefluor710): 0.02%
  % Gated, R10 EpCAM positive Cells (CD44FITC, EpCAMefluor710): 0.02%
  % Total, R10 EpCAM positive Cells (CD44FITC, EpCAMefluor710): 0.02%
  % Gated, R11 (CD44FITC, EpCAMefluor710): 0.2%
  % Total, R11 (CD44FITC, EpCAMefluor710): 0.17%
[1]; 48 h incubation
  % Gated, R4 (CD44FITC, CD133 PE): 38%
  % Total, R4 (CD44FITC, CD133 PE): 34.2%
  % Gated, R5 (CD44FITC, CD133 PE): 7.48%
  % Total, R5 (CD44FITC, CD133 PE): 6.73%
  % Gated, R6 (CD44FITC, CD133 PE): 31.3%
  % Total, R6 (CD44FITC, CD133 PE): 28.2%
  % Gated, R7 Cancer Stem Cell (CSC) (CD44+CD133-): 23.9%
  % Total, R7 Cancer Stem Cell (CSC) (CD44+CD133-): 21.5%
  % Gated, R8 (CD44FITC, EpCAMefluor710): 20%
  % Total, R8 (CD44FITC, EpCAMefluor710): 18%
  % Gated, R9 EpCAM positive Cells (CD44FITC, EpCAMefluor710): 34.7%
  % Total, R9 EpCAM positive Cells (CD44FITC, EpCAMefluor710): 31.2%
  % Gated, R10 EpCAM positive Cells (CD44FITC, EpCAMefluor710): 31.8%
  % Total, R10 EpCAM positive Cells (CD44FITC, EpCAMefluor710): 28.7%
  % Gated, R11 (CD44FITC, EpCAMefluor710): 14.4%
  % Total, R11 (CD44FITC, EpCAMefluor710): 12.9%
[1]; 10 ng per ml for 24 hours (Table 2, R7 region)
  putative stem cell population (CD44+/CD133-): 1%
[1]; 10 ng per ml for 48 hours (Table 3, R7 region)
  putative stem cell population (CD44+/CD133-): 23%
[1]; at baseline (Table 1, R7 region)
  putative stem cell population (CD44+/CD133-): 33%
[1]; at 24 hours
  percentage of cancer stem cells: less than one percent
[1]; at 48 hours
  percentage of cancer stem cells: 21%
[1]; prior to exposure
  percentage of cancer stem cells: approximately 30%
SW 620 cell lines; HGF alone 24 hours at 10 ng per ml followed by CPT-11, SW 620
  remaining cancer stem cells CD44+/CD133-: 0%
SW 620 cell lines; [2]
  cancer stem cells killed: 100%
  viable cancer stem cells remaining: no viable cancer stem cells remaining
PANC1
  reduction in cell viability: 87%
Cancer cells
  sensitization of cancer cells to the combination treatment: made the combination treatment less effective
